PubChem BioAssay AID1671282

Biological target: Tyrosine-protein kinase Fyn (Homo sapiens) (UniProt P06241)
Assay: inhibitors of human FYN tyrosine kinase activity – biochemical, Z'-LYTE, FRET readout, direct format, dose response (AID 1671282)
Conditions: Z'-LYTE FRET kinase assay, recombinant FYN

Tyrosine-protein kinase Fyn (Homo sapiens), sequence (P06241 whole entry, looked up): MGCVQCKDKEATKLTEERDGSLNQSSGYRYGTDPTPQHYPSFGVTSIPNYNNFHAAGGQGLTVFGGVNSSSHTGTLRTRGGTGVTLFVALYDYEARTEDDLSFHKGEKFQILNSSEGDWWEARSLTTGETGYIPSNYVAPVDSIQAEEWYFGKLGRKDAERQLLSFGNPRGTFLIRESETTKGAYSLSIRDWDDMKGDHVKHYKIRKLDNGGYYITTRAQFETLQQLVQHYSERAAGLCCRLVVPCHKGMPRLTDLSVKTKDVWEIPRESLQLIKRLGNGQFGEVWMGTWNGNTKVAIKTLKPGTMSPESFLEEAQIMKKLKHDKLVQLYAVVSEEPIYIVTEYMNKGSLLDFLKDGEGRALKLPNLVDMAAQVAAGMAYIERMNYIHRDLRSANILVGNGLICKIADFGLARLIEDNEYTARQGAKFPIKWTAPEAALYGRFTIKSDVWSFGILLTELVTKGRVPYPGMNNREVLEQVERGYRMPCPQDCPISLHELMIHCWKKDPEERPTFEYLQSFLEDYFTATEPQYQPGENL

IC50: 8.78 µM
Structure (SMILES): COc1cc2ncnc(Nc3cccc(Cl)c3)c2cc1OC
